Data from patent publication US20140045856A1, “4-Methyl-2,3,5,9,9b-pentaaza-cyclopenta[a]naphthalenes” (BOEHRINGER INGELHEIM INTERNATIONAL GMBH, priority 2012, published 2014).

What was measured:
[1] = target: PDE2A (Homo sapiens, UniProt O00408); experiment: PDE 2A assay with fluorescent substrate (IMAP, fluorescence polarization); type: biochemical; conditions: read-out: PDE2 IC50
Source text: c) Phosphodiesterase (PDE) 2A and 10 Assay with Fluorescent Substrate
The PDE reaction cleaves cAMP to AMP. The IMAP system (Molecular Device) using fluorescence polarization (FP) as detection principle was used to measure enzyme activity. A fluorescent labeled cAMP was used as substrate for the reaction, generating a labeled AMP. The fluorescent AMP binds specifically to the large M(III)-based nano-particles which reduces the rotational speed of the substrate and thus increases its polarization.
The inhibition of PDE 2A or 10 enzyme activity was assessed using IMAP-Phosphodiesterase-cAMP fluorescence labeled substrate (Molecular Devices, Order No. R7506), IMAP TR-FRET screening express (Molecular Devices, Order No. R8160, the TR-FRET component will not be used) and PDE 2A or PDE10 protein expressed upon baculovirus infection in SF9 cells. The cells were incubated after infection for ˜3 days and protein production was confirmed by Western Blot. The cells were collected by centrifugation and the pellet frozen in liquid nitrogen before it was resuspended in PBS containing 1% Triton X-100 and protease inhibitors.
All reactions were performed in 384 well plates, Perkin Elmer black optiplates and IMAP reaction buffer with 0.1% Tween20 (kit component)
Compounds were serial diluted in DMSO. With an intermediate dilution step with reaction buffer DMSO concentration was reduced to achieve 1% DMSO in the assay reaction. Setup of the assay started with 10 μl enzyme (˜10 ng/well, depending on prep. batch), 5 μl compound, reaction was started by addition of 5 μl labeled cAMP (30 nM, final concentration), immediately mixed for 15 seconds on a Eppendorf mixmate (2000 rpm) followed by an incubation at room temperature for 90 minutes in the dark. Reaction is stopped by adding of 60 μl binding buffer for FP/cAMP (kit component).
Each assay plate contained wells with vehicle controls (1% DMSO) for the measurement of non-inhibited reaction (=100% control) and wells without enzyme as 0% controls.

[2] = target: PDE10 (Homo sapiens, UniProt Q9Y233); experiment: PDE10 assay with fluorescent substrate (IMAP, fluorescence polarization); type: biochemical
Chain of PDE10 (Q9Y233 whole entry, species assumed): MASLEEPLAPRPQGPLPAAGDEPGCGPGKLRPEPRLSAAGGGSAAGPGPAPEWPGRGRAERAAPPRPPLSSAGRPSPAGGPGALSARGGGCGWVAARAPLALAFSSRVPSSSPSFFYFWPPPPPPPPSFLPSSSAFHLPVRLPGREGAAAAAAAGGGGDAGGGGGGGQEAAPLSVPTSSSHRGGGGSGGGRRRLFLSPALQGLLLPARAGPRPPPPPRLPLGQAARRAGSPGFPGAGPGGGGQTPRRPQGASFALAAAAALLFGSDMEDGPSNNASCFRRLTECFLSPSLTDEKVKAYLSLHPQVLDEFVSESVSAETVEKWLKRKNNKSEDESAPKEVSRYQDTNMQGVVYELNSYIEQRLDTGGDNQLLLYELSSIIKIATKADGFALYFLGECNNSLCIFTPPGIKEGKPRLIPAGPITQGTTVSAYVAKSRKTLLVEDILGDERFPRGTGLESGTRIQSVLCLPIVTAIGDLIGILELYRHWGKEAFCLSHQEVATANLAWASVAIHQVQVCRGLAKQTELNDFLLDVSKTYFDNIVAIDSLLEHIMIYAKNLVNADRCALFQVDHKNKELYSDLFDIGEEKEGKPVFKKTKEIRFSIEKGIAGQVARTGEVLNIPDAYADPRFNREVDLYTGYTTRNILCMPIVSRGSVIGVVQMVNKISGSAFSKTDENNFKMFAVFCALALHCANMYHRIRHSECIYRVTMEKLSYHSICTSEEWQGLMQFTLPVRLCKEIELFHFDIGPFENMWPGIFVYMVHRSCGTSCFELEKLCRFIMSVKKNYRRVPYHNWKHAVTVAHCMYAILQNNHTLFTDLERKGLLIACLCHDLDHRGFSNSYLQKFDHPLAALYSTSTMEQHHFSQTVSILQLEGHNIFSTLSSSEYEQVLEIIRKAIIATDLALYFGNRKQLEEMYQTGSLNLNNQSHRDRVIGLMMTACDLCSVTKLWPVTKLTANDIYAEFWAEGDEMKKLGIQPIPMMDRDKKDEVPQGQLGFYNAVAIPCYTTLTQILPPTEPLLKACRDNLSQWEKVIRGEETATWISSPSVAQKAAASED

Chain of PDE2A (O00408 whole entry, species assumed): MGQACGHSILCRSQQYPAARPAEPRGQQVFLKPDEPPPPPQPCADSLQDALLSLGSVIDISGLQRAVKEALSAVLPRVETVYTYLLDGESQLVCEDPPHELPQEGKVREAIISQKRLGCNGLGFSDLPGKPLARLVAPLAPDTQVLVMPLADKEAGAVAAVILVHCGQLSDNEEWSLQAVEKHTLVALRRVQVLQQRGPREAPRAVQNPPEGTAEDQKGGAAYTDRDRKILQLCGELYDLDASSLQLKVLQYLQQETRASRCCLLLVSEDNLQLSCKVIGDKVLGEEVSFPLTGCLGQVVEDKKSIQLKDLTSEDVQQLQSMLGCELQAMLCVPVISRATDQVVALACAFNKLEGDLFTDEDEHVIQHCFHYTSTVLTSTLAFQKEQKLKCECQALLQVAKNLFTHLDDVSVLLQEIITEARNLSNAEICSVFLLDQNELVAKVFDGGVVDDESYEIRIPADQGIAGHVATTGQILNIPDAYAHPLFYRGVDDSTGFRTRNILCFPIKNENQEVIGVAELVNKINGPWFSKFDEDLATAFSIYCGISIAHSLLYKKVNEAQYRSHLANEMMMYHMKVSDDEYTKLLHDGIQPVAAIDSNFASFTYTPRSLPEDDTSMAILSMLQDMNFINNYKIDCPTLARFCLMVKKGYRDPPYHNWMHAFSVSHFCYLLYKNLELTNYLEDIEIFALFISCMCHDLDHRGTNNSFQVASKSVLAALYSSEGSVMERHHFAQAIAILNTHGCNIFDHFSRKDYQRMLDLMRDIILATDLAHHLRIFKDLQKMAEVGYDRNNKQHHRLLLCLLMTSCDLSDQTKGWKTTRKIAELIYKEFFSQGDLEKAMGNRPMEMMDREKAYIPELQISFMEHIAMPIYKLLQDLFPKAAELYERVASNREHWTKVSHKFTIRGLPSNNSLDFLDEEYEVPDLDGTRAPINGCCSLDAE

Row | Compound | IC50 [1] [µM] | IC50 [2] [µM]
1 | Cc1nc2ccc(C3CC3)nc2n2c(-c3cc(OC4COCCC4O)ccc3Cl)nnc12 (single isomer, unassigned) [Example 109d] | 0.004 | 1.83
2 | Cc1nc2ccc(C(F)(F)F)nc2n2c(-c3cc(C4(O)CCOCC4)ccc3F)nnc12 [Example 96a] | 0.199 | 
3 | Cc1nc2ccc(C3CC3)nc2n2c(-c3cc(O)ccc3F)nnc12 [Example 5] |  | 0.005
4 | Cc1nc2ccc(C(F)(F)F)nc2n2c(-c3cc(OC4COCC4O)ccc3F)nnc12 (single isomer, unassigned) [Example 106a] | 0.429 | 1.41
5 | Cc1ccc(C(C)(C)O)cc1-c1nnc2c(C)nc3ccc(C(C)C)nc3n12 [Example 78] | 0.01 | 2.85
6 | Cc1nc2ccc(C3CC3)nc2n2c(-c3cc(OC4CCOCC4O)ccc3F)nnc12 (single isomer, unassigned) [Example 108d] |  | 0.63
7 | Cc1ccc(O)cc1-c1nnc2c(C)nc3ccc(C(F)(F)F)nc3n12 [Example 12a] | 0.036 | 0.17
8 | Cc1nc2ccc(C(F)(F)F)nc2n2c(-c3cc(OC4COCCC4O)ccc3F)nnc12 (single isomer, unassigned) [Example 110b] | 0.388 | > 10
9 | Cc1nc2ccc(C3CC3)nc2n2c(-c3cc(C4(O)CCOC4)ccc3Cl)nnc12 (racemic) [Example 97] | 0.004 | 
10 | Cc1nc2ccc(C3CC3)nc2n2c(-c3cc(O)ccc3Cl)nnc12 [Example 9] | 0.001 | 0.015
11 | Cc1nc2ccc(C(F)(F)F)nc2n2c(-c3cc(C(C)(C)O)ccc3F)nnc12 [Example 103c] | 0.622 | 7980
12 | Cc1ccc(C(C)(C)O)cc1-c1nnc2c(C)nc3cc(C(C)C)cnc3n12 [Example 79] | 0.144 | 
13 | Cc1nc2ccc(C(F)(F)F)nc2n2c(-c3cc(OC4CCOCC4O)ccc3F)nnc12 (single isomer, unassigned) [Example 110d] | 0.467 | 
14 | Cc1nc2ccc(C3CC3)nc2n2c(-c3cc(C4(O)CCOCC4)ccc3F)nnc12 [Example 95] | 0.005 | 1.37
15 | Cc1ccc2nc(C)c3nnc(-c4cc(C5(O)CCC5)ccc4F)n3c2n1 [Example 90] | 0.103 | 0.485
16 | Cc1nc2cccnc2n2c(-c3cc(C4(O)CCOC4)ccc3Cl)nnc12 (single isomer, unassigned) [Example 98] | 0.139 | 1.56
17 | Cc1nc2cccnc2n2c(-c3cc(C4(O)CCC4)ccc3F)nnc12 [Example 86] | 0.434 | 5.75
18 | Cc1nc2ccc(C(C)C)nc2n2c(-c3cc(C4(O)CCC4)ccc3Cl)nnc12 [Example 91] | 0.001 | 0.077
19 | Cc1nc2ccc(C3CC3)nc2n2c(-c3cc(C4(O)CCOC4)ccc3Cl)nnc12 (single isomer, unassigned) [Example 97b] |  | 0.891
20 | Cc1nc2ccc(C3CC3)nc2n2c(-c3cc(C4(O)CCOCC4)ccc3Cl)nnc12 [Example 94] | 0.001 | 2.72
21 | Cc1nc2ccc(C3CC3)nc2n2c(-c3cc(OC4CCOCC4O)ccc3Cl)nnc12 (single isomer, unassigned) [Example 109b] | 0.009 | 1.09
22 | Cc1nc2ccc(C(F)(F)F)nc2n2c(-c3cc(O)ccc3Cl)nnc12 [Example 12] | 0.009 | 0.044
23 | Cc1nc2ccc(C3CC3)nc2n2c(-c3cc(C(C)(C)CO)ccc3F)nnc12 [Example 101] |  | 1.13
24 | Cc1nc2ccc(C3CC3)nc2n2c(-c3cc(C4(O)CCOCC4O)ccc3F)nnc12 (racemic) [Example 105] |  | 1.54
25 | Cc1nc2ccc(C(F)(F)F)nc2n2c(-c3cc(C4(O)CCOC4)ccc3F)nnc12 (stereo not drawn) [Example 96c] |  | 7.46

Row | Compound | IC50 [1] [µM] | IC50 [2] [µM]
26 | Cc1cnc2c(c1)nc(C)c1nnc(-c3cc(O)ccc3Cl)n12 [Example 11] | 0.059 | 0.123
27 | Cc1ccc2nc(C)c3nnc(-c4cc(CO)ccc4Cl)n3c2n1 [Example 60] |  | 0.285
28 | Cc1ccc(C2(O)CCOCC2)cc1-c1nnc2c(C)nc3ccc(C(F)(F)F)nc3n12 [Example 96b] | 0.087 | 
29 | Cc1nc2ccc(C3CC3)nc2n2c(-c3cc(OC4CCOCC4O)ccc3F)nnc12 (single isomer, unassigned) [Example 108c] |  | 0.262
30 | Cc1nc2ccc(C(F)(F)F)nc2n2c(-c3cc(C4(O)CCOCC4)ccc3Cl)nnc12 [Example 96] | 0.043 | 
31 | Cc1nc2ccc(C(C)C)nc2n2c(-c3cc(O)ccc3F)nnc12 [Example 8] | 0.002 | 0.008
32 | Cc1nc2ccc(C(F)(F)F)nc2n2c(-c3cc(OC4COCC4O)ccc3F)nnc12 (single isomer, unassigned) [Example 106b] | 0.05 | 2.5
34 | Cc1nc2cccnc2n2c(-c3cc(CCC(C)(C)O)ccc3F)nnc12 [Example 65] |  | 3.54
35 | Cc1nc2ccc(C(C)C)nc2n2c(-c3cc(C(C)(C)O)ccc3Cl)nnc12 [Example 77] |  | 1.4
36 | Cc1ccc(CC(C)(C)O)cc1-c1nnc2c(C)nc3ccc(C4CC4)nc3n12 [Example 81] | 0.007 | 5.38
37 | Cc1nc2ccc(C(C)C)nc2n2c(-c3cc(C4(O)CCC4)ccc3F)nnc12 [Example 92] | 0.002 | 0.553
38 | Cc1ccc(O)cc1-c1nnc2c(C)nc3ccc(C4CC4)nc3n12 [Example 6] | 0.003 | 0.01
39 | Cc1nc2ccc(C3CC3)nc2n2c(-c3cc(C4(O)CCOC4)ccc3Cl)nnc12 (single isomer, unassigned) [Example 97a] |  | 5.94
40 | Cc1nc2ccc(C3CC3)nc2n2c(-c3cc(OC4COCC4O)ccc3Cl)nnc12 (racemic) [Example 56] |  | 0.061
41 | Cc1nc2ccc(C3CC3)nc2n2c(-c3cc(OC4COCCC4O)ccc3Cl)nnc12 (single isomer, unassigned) [Example 109a] | 0.014 | 1.67
42 | Cc1ccc(C2(O)CCOCC2)cc1-c1nnc2c(C)nc3ccc(C4CC4)nc3n12 [Example 103] | 0.003 | 1.01
43 | Cc1nc2ccc(C3CC3)nc2n2c(-c3cc(OC4CCOCC4O)ccc3Cl)nnc12 (single isomer, unassigned) [Example 109c] | 0.009 | 1.36
44 | Cc1nc2ccc(C3CC3)nc2n2c(-c3cc(CCC(C)(C)O)ccc3Cl)nnc12 [Example 69] | 0.001 | 0.891
45 | Cc1nc2cccnc2n2c(-c3cc(OCC4(O)CCC4)ccc3F)nnc12 [Example 53] | 0.14 | 2.83
46 | Cc1nc2cccnc2n2c(-c3cc(C4(O)CCOC4)ccc3Cl)nnc12 (stereo not drawn) [Example 74] | 0.131 | 2.34
48 | Cc1nc2cccnc2n2c(-c3cc(OCC4(O)CC4)ccc3Cl)nnc12 [Example 43a] | 0.109 | 4.51
49 | Cc1ccc(O)cc1-c1nnc2c(C)nc3ccc(C(C)C)nc3n12 [Example 7] | 0.003 | 0.016
50 | CCCC(O)c1ccc(Cl)c(-c2nnc3c(C)nc4ccc(C)nc4n23)c1 (stereo not drawn) [Example 61] | 0.004 | 0.534
